We go through four compounds from patent US5319099A, “3-benzylidene-1-carbamoyl-2-pyrrolidone compounds useful as antiinflammatory agents” (Shionogi Seiyaku Kabushiki Kaisha, priority 1991, dated 1994).

Structures are written as SMILES. Like-named read-outs stand apart in the source and are kept apart here. Some results are limits rather than exact numbers.

In data set [1] the test system is Tunica Mucosa Ventriculi of rat (stomach). Nature of the data set: Inducing Activities on Injury at Tunica Mucosa of Rat (stomach). Format: in vivo, rat (LEW/Crj). Conditions: oral, 6 hours. On the procedure: Inducing Activities on Injury at Tunica Mucosa of Rat
Sixs LEW/Crj male rats (six week old, 140-160 g weight) were used per one group. A drug was orally administered to each rat fasted for 24 hours, then six hours later each rat were bled to death under anesthesia of ether. From each rat was taken out the stomach, in which about 6 ml of physiological saline was filled, then the stomach was steeped in 1% formalin solution for 15 min. The stomach was incised along with curvatura ventriculi major and observed with an actual-microscope to see the injured condition thereof, then the number of rats injuried at stomach and the length of hemorrhage macula were determined. The degree of the injury was shown as Lesion index (mm) which was the cumulative value of the length of hemorrhage macula in each administered group.

Data set [2] concerns PGE2 production from rat synovia cells (Rat SVC). The data set is described as follows: Inhibitory Activity on PGE2 Production from Rat Synovia Cells. The class given is cell-based, rat (LEW/Crj). Conditions: human IL-1 β 30 U/ml, 15 hours, RIA. On the procedure:
Inhibitory Activity on PGE2 Production from Rat Synovia Cells
LEW/Crj rats (male, 300-350 g weight) were subjected to synovectomy. The isolated synovia cells were subcultivated under a certain condition up to a well amount of cells for the experiment. The cells were dispensed to each well of a 96-well microtiter plate at a concentration of 4×10^3 /160 μl/well and then cultivated for 72 hours in a CO2 incubator. Serial dilutions (20 μl each) of a test compound and human IL-1 β(final concentration: 30 U/ml) were added to the wells and incubated for 15 hours in a Co2 incubator. After the incubation, the supernatant was collected from each well and stored at -80° C. until PGE2 assay. […]

Data set [3] deals with Carrageenin-Induced Paw Edema of Rat. Nature of the data set: Inhibitory Activity on Carrageenin-Induced Paw-Edema of Rat. Format: in vivo, rat (LEW/Crj). The settings on record: oral 1 hour before carrageenin, inhibitory rate 3 or 4 hours after carrageenin, read-out: ED30 Inhibitory Activities to Carrageenin-Induced Paw Edema of Rat. On the procedure:
Inhibitory Activity on Carrageenin-Induced Paw-Edema of Rat
Namely, male LEW/Crj rats (6-week-old, 140-170 g weight) fasted for 24 hours were used (7 to 8 rats per group).
A solution (0.1 ml) containing 1% λ-carrageenin (PICININ-A, Zushikagaku) was injected into the subplantar tissue of the right hind paw of each rat orally administered a test compound before 1 hour, to induce edema. The paw volume was calculated plethysmographically before and after the injection at an interval of 1 hour until 5 hours later. The inhibitory rate of the drug-administered group was calculated, with the vehicle group as the reference, to determine the efficacy of the test compounds by Dunnett-t assay. The anti-edema activity was indicated as ED30 calculated, by regression analysis method, based on the inhibitory rate shown 3 or 4 hours later after the administration of carrageenin.

Data set [4] has as its system IL-1 production in THP-1 cells. Nature of the data set: Inhibitory Activity on IL-1 Production caused by The Stimulation of LPS in THP-1 Cells. The class given is cell-based. The settings on record: Homo sapiens, read-out: IC50 THP-1 IL-1. On the procedure: Serial dilutions (100 μl each) of a test compound and LPS (final concentration: 10 μg/ml) were further added to each well and the plate was kept at 37° C. for 24 hours. Then, the supernatant was collected from each well and centrifuged (3000 rpm×10 min.). […]

Data set [5] concerns LTB4 production from rat peritoneal cells (Rat PEC). Nature of the data set: Inhibitory Activity on LTB4 Production from Rat Peritoneal Cells. The class given is cell-based, rat (Jcl-SD). The settings on record: 0.25 h, Ca-ionophore A23187 1 μM, 15 min, RIA. On the procedure:
Inhibitory Activity on LTB4 Production from Rat Peritoneal Cells
To each male Jcl-SD rat (300-350 g weight) was intraperitoneally administered 10 ml of Hanks' solution containing 0.1% bovine serum albumin (hereinafter referred to as BSA) and 25 U/ml of heparin. Then the ascites were collected and centrifuged (1500 rpm×5 min., at 4° C.). The resulting cell fraction (precipitation) was suspended and adjusted at […] with Hanks' solution containing 0.1% BSA. The thus obtained suspension (800 μl, 8×10^5 cells) was dispensed into polypropylene tubes and incubated at 37° C. 10 min, and successively for 10 min. after addition of serial dilutions (100 μl each) of a test sample. Next, 100 μl of Ca-ionophore A23187 (final concentration: 1 μM) was added to the resulting suspension and allowed to stand for 15 min, then the mixture was ice-cooled to terminate the reaction. The reaction mixtures were centrifuged (3000 rpm×5 min., at 4° C.) to give supernatants, which were collected and stored at -80° C. until LTB4 assay. After thawed, the LTB4 assay was performed by RIA using ^3 H--LTB4.

[6] abbreviates: THP-1 cells, LPS 10 μg/ml, 24 hours, RIA of IL-1 β.

Take `CC(C)(C)c1cc(C=C2CCN(C(=O)NO)C2=O)cc(C(C)(C)C)c1O` [Ia-4, N-(N-hydroxycarbamoyl)-3-(3,5-di-tert-butyl-4-hydroxybenzylidene)pyrrolidin-2-one]: the “Injury at Tunica Mucosa Ventriculi, Degree of Injury (Lesion index)” value (from here on “Injury … (Lesion index)”) in data set [1] (100 mg/kg) amounted to 0 ± 0 mm; in data set [1] (200 mg/kg) it was 0 ± 0 mm; in data set [1] (400 mg/kg) it was 0.2 ± 0.1 mm. The “Injury at Tunica Mucosa Ventriculi, Number Occurrence/Sample” value (shortened to “Injury … Number Occurrence/Sample”) is recorded as 0/8 in data set [1] (100 mg/kg), 0/8 in data set [1] (200 mg/kg) and 3/8 in data set [1] (400 mg/kg). In addition, the half-maximal inhibitory concentration (IC50) in data set [2] was 200 nM; in data set [4] (setting [6]), 25000 nM; in data set [5] it was 3000 nM. The ED30 in data set [3] worked out at 16 mg/kg.
As to `CC(C)(C)c1cc(C=C2CCN(C(N)=O)C2=O)cc(C(C)(C)C)c1O` [Ia-1, N-carbamoyl-3-(3,5-di-tert-butyl-4-hydroxybenzylidene)pyrrolidin-2-one], the “Injury … (Lesion index)” value in data set [1] (10 mg/kg), in data set [1] (100 mg/kg) and in data set [1] (200 mg/kg) was 0 ± 0 mm each time. The “Injury … Number Occurrence/Sample” value in data set [1] (10 mg/kg), in data set [1] (100 mg/kg) and in data set [1] (200 mg/kg) was 0/6 throughout. Besides, the half-inhibitory concentration (IC50) in data set [2] came to 400 nM; in data set [4] (setting [6]) it was 20000 nM; in data set [5], 4000 nM. In addition, the ED30 in data set [3] was 18 mg/kg.
With `CN(O)C(=O)N1CCC(=Cc2cc(C(C)(C)C)c(O)c(C(C)(C)C)c2)C1=O` [Ia-6, N-(N-hydroxy-N-methylcarbamoyl)-3-(3,5-di-tert-butyl-4-hydroxybenzylidene)pyrrolidin-2-one], the “Injury … (Lesion index)” value in data set [1] (10 mg/kg) is recorded as 0 ± 0 mm; in data set [1] (30 mg/kg), 0.6 ± 0.5 mm; in data set [1] (100 mg/kg), 1.0 ± 0.5 mm. For the same compound, the “Injury … Number Occurrence/Sample” value in data set [1] (10 mg/kg) is listed as 0/6; in data set [1] (30 mg/kg), 3/6; in data set [1] (100 mg/kg), 3/6. The 50% inhibitory concentration (IC50) in data set [2] worked out at 9 nM; in data set [4] (setting [6]), 34000 nM; in data set [5], 3000 nM. Moreover, the ED30 in data set [3] worked out at 9 mg/kg.
For `CON1CCC(=Cc2cc(C(C)(C)C)c(O)c(C(C)(C)C)c2)C1=O` [Reference Compound, N-methoxy-3-(3,5-di-tert-butyl-4-hydroxybenzylidene)-2-pyrrolidone, reference compound], the results for the “Injury … (Lesion index)” value in data set [1] (3 mg/kg), in data set [1] (10 mg/kg) and in data set [1] (30 mg/kg) were 4.5 ± 1.3 mm, 7.2 ± 1.2 mm and 11.2 ± 2.2 mm, respectively. Besides, the “Injury … Number Occurrence/Sample” value in data set [1] (3 mg/kg), in data set [1] (10 mg/kg) and in data set [1] (30 mg/kg) was 6/6 throughout. In addition, the IC50 in data set [2] is 5 nM; in data set [4] (THP-1, 24 h), above 100000 nM; in data set [5], 6000 nM. Moreover, the ED30 in data set [3] stood at 3 mg/kg.
